Test results: patent US10350262B2, “MCJ agonists and uses therefor” (priority 2015, dated 2019)
Non-standard residues stand in square brackets, D forms with d. No end group written: not given here. Cha = N[C@@H](CC1CCCCC1)C(=O)O

Experiments:
[1] = test system: Molm13 cells; test: Viable cell number of Molm13 AML cells; type: cell-based; details: 3 days
[2] = test system: MCF7/siMCJ cells; test: Confocal microscopy for doxorubicin accumulation; type: cell-based, human; details: oligomycin 5 μM with doxorubicin 3 μM, 4 h; vs doxorubicin alone
Method: Confocal microscopy for doxorubicin accumulation. MCF7/siMCJ cells were seeded on BD Biocoat coverslips (BD Biosciences, Bedford, Mass.) the day before the treatment. At 20 h, oligomycin (5 μM) or medium was added to the cell. After 3 h, doxorubicin (3 μM) was added and cells were further incubated for 4 h. Cells were washed with PBS and fixed in 3.7% paraformaldehyde. […] For nuclear staining, DAPI (Molecular Probes, Eugene, Oreg.) was used. Cells were visualized by confocal microscopy (Zeiss LSM 510 META Confocal Laser Scanning Imaging System, Carl Ziess Microimaging Inc, Thronwood, N.Y.). The term: MCF7/siMCJ and siMCJ/MCF7 is used interchangeably herein. Experiments were performed to determine whether reducing mitochondrial respiration in cancer cells restores the cells' sensitivity to chemotherapeutic agents. […] MCF7/siMCJ cells were treated with doxorubicin alone or doxorubicin and oligomycin (an inhibitor of Complex V/ATP synthase) at a concentration of 5 μM for 4 h. Doxorubicin intrinsic fluorescence in the cells was viewed by confocal microscopy. The DAPI dye was used as a nuclear maker.

[3] = test system: MCF7 cells; test: Viable cell count of MCF7 cells (Trypan blue); type: cell-based, human; details: 25 μM, 2 days
Description: (§1) FIG. 15A provides results of Western blot analysis for MCJ in MCF7 cells and MCF7/ADR (ADR) cells. Actin was used as loading control. […] Viable cells were counted 2 days later.
(§2) Cell Culture. MCF7 and MCF7/ADR cells were a kind gift from Dr. Ken Cowan (National Cancer Institute, Bethesda, Md.). MCF7/siMCJ cells were generated by stable transfection with a plasmid expressing a shRNA for MCJ (siMCJ) as described in Hatle, K. M., et al., Mol Cell Biol 27, 2952-2966 (2007). All cells were maintained at 37 C, 5% CO2 in RPMI-1640 (Life technologies, Inc., Gaithersburg, Md.) containing 5% FBS.
(§3) Cell count. Cells were trypsinized, washed, and resuspended in medium. Number of viable cells was measured by counting using Trypan blue dye to exclude dead cells (visualized as blue).
(§4) Doxorubicin and peptides treatment in vitro. Doxorubicin (Sigma-Aldrich) was used at 3 μM final concentration. The three different peptides described in the examples (SEQ ID NO: 2, 18 or 6) were resuspended at 10 mM stock concentration in PBS. The peptides were used a different concentration as indicated for each example (1, 10, or 50 μM). Cells were plated the day prior the treatment (18-20 h prior to the treatment). For treatments with peptides only, peptides were added to the plates at the indicated concentrations, and after 2 or 3 days (as indicated for each example) cells were trypsinized, resuspended, and counted. For the treatment with doxorubicin and peptides, cells were pretreated with the corresponding peptide for 4 h prior to adding doxorubicin.
MCF7 cells and MCF7/ADR cells were incubated (using standard procedures) for two days in media alone or in media that included different concentrations of the TAT-N-MCS-MTS polypeptide having the amino acid sequence set forth as: […]

[4] = test system: MCF7/ADR cells; test: Viable cell count of MCF7/ADR cells (Trypan blue); type: cell-based, human
Method: as §1
FIG. 16A-B provides graphs showing response to MCJ agonists. […] Cells were harvested 2 days later and viable cells were counted. […] Mice were harvested at day 4. The size of a tumor over time was determined by caliper measurements, and is represented as a percentage relative to the initial size prior to the treatment. p<0.05 as determined by a paired t-test.
as §2, §3, §4
MCF7/ADR cells were incubated (using standard procedures) for three days in media alone or in media plus three different MCJ based polypeptides each at a concentration of 50 μM in media. The cells of set one were incubated in media and served as a control set. The cells of set two were incubated in media that included a 50 μM concentration of a MCJ polypeptide without a targeting agent polypeptide. The amino acid sequence of the N-MCJ polypeptide without a targeting agent polypeptide was […] (SEQ ID NO:2). The cells of set three were incubated in media that included a 50 μM concentration of a TAT-N-MCJ polypeptide. The amino acid sequence of the TAT-N-MCJ polypeptide was: […] (SEQ ID NO:18). […]

[5] = test system: MCF7/ADR cells; test: Seahorse MitoStress assay, oxygen consumption rate (OCR); type: cell-based, human
Method: FIG. 14A-C provides graphs showing effect of MCJ agonist polypeptides on OCR and respiratory capacity of cells. […] Cells pretreated with medium alone (medium), TAT-N-MCJ-mts peptide (TAT peptide) (50 μM) (FIG. 14A) or MITO-N-MCJ peptide (Mito peptide) (25 μM) (FIG. 14B) for the last 9 h prior to the MitoStress assay as described elsewhere herein. Standard flow chart for the treatments as recommended by the manufacturer (Seahorse Bioscience, Billerica, Mass.) was used: oligomycin (O), FCCP (F) and rotenone and antimycin (R+A). […] Oligomycin was replaced by vehicle (buffer) or MITO-N-MCJ peptide.
Human breast cancer cell lines MCF7 cells with siRNA-mediated knockdown of MCJ (MCF7/siMCJ cells) have increased Complex I activity. Experiments were performed to examine the effect of MCJ on mitochondrial respiration using the Seahorse X24 analyzer and the MitoStress assay (used in examples herein according to manufacturer's protocols) that measures mitochondrial oxygen consumption rate (OCR), a well-accepted proxy for mitochondrial respiration (Seahorse Bioscience, North Billerica, Mass.). […] In addition, maximum respiratory capacity (determined after addition of the mitochondrial uncoupler FCCP) was also drastically higher in MCF7/siMCJ cells (FIG. 12A). Moreover, Seahorse MitoStress analysis of OCR in primary mammary tumor cells from MMTV-Py mice [Guy, C.
The agonist polypeptides were tested to determine whether they would restore particular MCJ functions and the effect of the agonist polypeptides in mitochondrial respiration was examined. […] OCR was determined by the Seahorse analyzer in MCF7/ADR cells and MCF7/ADR cells that were pretreated with the TAT-N-MCJ-mts peptide for 9 h.
Assays were performed to examine the effect of MITO-N-MCJ peptide on mitochondrial respiration when added directly on cells ongoing Seahorse mito-stress analysis. In this case, OCR was first measured at the basal level and then either vehicle (Seahorse buffer) or the MITO-N-MCJ peptide was added in one of the ports from Seahorse. […]

[6] = test system: Molm13 cells; test: Mitochondrial membrane potential by TMRE staining, flow cytometry; type: cell-based; details: 22 h
Method: (§5) FIG. 17A-D provides graphs of results showing MCJ agonist inhibition of AML. FIG. 17A-B show results when Molm13 cells (10^4 cells) were incubated in the presence of medium, TAT-N-MCJ-mts peptide (TAT) (25 μM), MITO-N-MCJ peptide (25 μM), AC220 (2 nM) or the combination of the peptides with AC220. Numbers of viable cells was measured after 3 days. […] The percentage of live cells negative for TMRE (TMREneg) is shown. […] The percentage of live PY1^+ cells is shown.
(§6) Experiments were also performed to assess the effect of MCJ agonists on mitochondrial membrane potential by staining with the TMRE dye. Given the more modest effects observed for TAT-N-MCJ-mts (FIG. 17A-B), 50 μM of this peptide was used in the experiments. […] AML cells are sensitive to the levels of reactive oxygen species (ROS), which are primarily generated in mitochondria as a result of electron leakage from the ETC. It was previously shown that MCJ can interfere with the formation of ETC respiratory supercomplexes [Hatle, K., et al., (2013) Mol Cell boil 33:2302-2314] that are formed to facilitate electron transport between complexes and minimize electron leakage [see Acin-Perez, R. et al., (2008) Mol Cell 32:529-539 and Lapuente-Brun, E. et al., (2013) Science 340:1567-1570]. […] The effect of the MCJ agonists was already observed after 5 h of treatment. […]

[7] = test system: Molm13 cells; test: Mitochondrial ROS (mROS) by PY1 staining, flow cytometry; type: cell-based; details: 22 h
Method: as §5, §6

[8] = test system: MCF7/ADR cells; test: Bright field microscopy of MCF7/ADR cells; type: cell-based, human; details: 50 μM, two days; relative to medium only
Method: FIG. 3 provides photomicrographic images of MCF7/ADR cells that were incubated for two days in column (1) media alone; column (2) media that included a 50 μM concentration of an N-MCJ polypeptide (SEQ ID NO:2); column (3) media that included a 50 μM concentration of the TAT-N-MCJ polypeptide (SEQ ID NO:18); and column (4) media that included a 50 μM concentration of the TAT-N-MCJ-MTS polypeptide (SEQ ID NO:6).
Bright Field Microscopy. Live cells were imaged at an inverted bright field microscope (Leica Microsystems). 400× magnification was used.

[9] = 25 μM in combination with AC220 2 nM

CC(C)(C)c1cc(NC(=O)Nc2ccc(-c3cn4c(n3)sc3cc(OCCN5CCOCC5)ccc34)cc2)no1 [AC220, reference compound] was tested, and the “viability (number of viable cells)” value ([1]; AC220 2 nM) was “effective at inducing Molm13 cell death”.
CC[C@H]1/C=C/C=C/C[C@@H](C)[C@H](O)[C@@](C)(O)C(=O)[C@@H](C)[C@H](O)[C@@H](C)C(=O)[C@@H](C)[C@H](O)[C@@H](C)/C=C/C(=O)O[C@@H]2[C@H](C)[C@H](CC1)O[C@]1(CC[C@H](C)[C@H](C[C@@H](C)O)O1)[C@H]2C [oligomycin] was tested, and the “doxorubicin accumulation (intrinsic fluorescence, nucleus)” value [2] was “doxorubicin accumulation (in the nucleus) only in MCF7/siMCJ cells treated with doxorubicin and oligomycin”.
“FxRFxKFxRFxKMAARGVIAPVGESLRYAEYL ([Cha]R[Cha]K[Cha]R[Cha]KMAARGVIAPVGESLRYAEYL) [MITO-N-MCJ, Fx is cyclohexylalanine]” was tested, and the “effect on viable cells” value [3] was “neither of the two MCJ agonists had an effect on MCF7 cells”, the “expansion of cells (viable cells)” value ([4]; 25 μM, peptide by itself, 2 days) was “drastic effect in limiting the expansion of these resistant cells” and the “efficacy relative to the TAT-N-MCJ peptide” value ([4]; MITO-N-MCJ greater than TAT peptide) was 2-3 times. For the same molecule, the “effect on OCR” value ([5]; 25 μM, pretreated 9 h, compared with TAT-N-MCJ-mts) was “even more pronounced”, the “mitochondrial respiration (OCR)” value ([5]; peptide added directly during the assay, OCR measured during 180 min, vs vehicle) was “marked reduction of mitochondrial respiration” and the “maximum respiratory capacity (after FCCP)” value ([5]; peptide added directly during the assay, vs vehicle only) was “severely compromised”. For the same molecule, the “mitochondrial membrane potential (TMRE negative live cells)” value [6, 9] was “the most remarkable effect”, the “mitochondrial membrane potential (TMRE negative live cells)” value ([6]; 25 μM) was “caused a loss of mitochondrial membrane potential (TMRE negative cells) in a fraction of Molm13 cells” and the “viability (number of viable cells)” value ([1]; peptide 25 μM alone) was “profound effect on Molm13 cells, leading to substantial cell death”. For the same molecule, the “cells refractory to AC220 (number of viable cells)” value ([1]; peptide 25 μM in combination with AC220 2 nM) was “effectively eliminated this resistant group”, the “production of mROS (live PY1+ cells)” value [7, 9] was “clearly synergized with AC220 to cause a massive production of mROS” and the “production of mROS (live PY1+ cells)” value ([7]; 25 μM) was “could induce the production of mROS”.
For “MAARGVIAPVGESLRYAEYL (listed as Homo sapiens) [N-MCJ]”, the “proliferation / cells attached to the culture plate (photomicrographs)” value [8] was “did not affect proliferation of the cells”.
With “YGKKRRQRRGMAARGVIAPVGESLRYAEYL [TAT-N-MCJ]” the “expansion of cells (viable cells)” value ([4]; control peptide lacking the mts) was “had no effect” and the “proliferation / cells attached to the culture plate (photomicrographs)” value [8] was “did not affect proliferation of the cells”.
